According to patent US12685312B2, “Sulfonamide apyrase inhibitors” (Texas Crop Science, Inc., priority 2022, dated 2026):

System: apyrase
Test: Screen for apyrase inhibitors (Method 1, in vitro phosphate-release absorbance assay)
Format: biochemical
Details: inhibitor conc at 1 mM stock, 1 hr room temperature, absorbance 630 nm; rounded average of two assay results
Method in brief: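 Phosphate-release colorimetric assay (Windsor method) in 60 mM Hepes, 3 mM MgCl2, 3 mM CaCl2, 3 mM ATP, pH 6.5, with compound or DMSO control added. Released phosphate developed with ammonium molybdate and ascorbic acid/TCA, then stopped with citrate/acetic acid.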

Question: Which “% Inhibition of Apyrase” value does the source give for `O=C(Nc1ccccc1NS(=O)(=O)c1cccs1)c1cc(Cl)ccc1F` [I-840, 5-chloro-2-fluoro-N-(2-(thiophene-2-sulfonamido)phenyl)benzamide] here?
Answer: The value was 18%.

Question: With `CSc1cccc(NC(=O)c2cccc(S(=O)(=O)N3c4ccccc4CC3C)c2)c1` (stereo not shown) [I-468, 3-((2-methylindolin-1-yl)sulfonyl)-N-(3-(methylthio)phenyl)benzamide] as the molecule, how does the “% Inhibition of Apyrase” value read?
Answer: Its value is 59%.

Question: How did the “% Inhibition of Apyrase” value turn out when `Cc1ccc(S(C)(=O)=O)cc1C(=O)Nc1cccc(NS(=O)(=O)c2ccc(Cl)cc2)c1` [I-346, N-(3-((4-chlorophenyl)sulfonamido)phenyl)-2-methyl-5-(methylsulfonyl)benzamide] was run?
Answer: Its value is 53%.

Question: How did the “% Inhibition of Apyrase” value turn out when `Cc1nc2cc(NC(=O)c3cccc(NS(=O)(=O)c4cccs4)c3)ccc2o1` [I-664, N-(2-methylbenzo[d]oxazol-5-yl)-3-(thiophene-2-sulfonamido)benzamide] was run?
Answer: Its value is 24%.

Question: Which “% Inhibition of Apyrase” value does the source give for `COc1ccccc1NS(=O)(=O)c1cccc(NC(=O)c2cncc(Br)c2)c1` [I-766, 5-bromo-N-(3-(N-(2-methoxyphenyl)sulfamoyl)phenyl) nicotinamide] here?
Answer: Its value is 14%.

Question: With `O=C(Nc1ccc2c(c1)OCO2)c1ccc(NS(=O)(=O)c2ccc(Br)cc2)cc1` [I-935, N-(benzo[d][1,3]dioxol-5-yl)-4-((4-bromophenyl)sulfonamido)benzamide] as the molecule, how does the “% Inhibition of Apyrase” value read?
Answer: The value was 52%.

Question: With `O=C(Nc1ccc2[nH]nnc2c1)c1ccc(S(=O)(=O)Nc2ccc(Cl)cc2)cc1` [I-389, N-(1H-benzo[d][1,2,3]triazol-5-yl)-4-(N-(4-chlorophenyl)sulfamoyl)benzamide] as the molecule, how does the “% Inhibition of Apyrase” value read?
Answer: The value was 63%.

Question: `Cc1ccc(C(=O)Nc2ccc(S(=O)(=O)Nc3ccc(F)cc3)cc2)cc1Br` [I-974, 3-bromo-N-(4-(N-(4-fluorophenyl)sulfamoyl)phenyl)-4-methylbenzamide] was tested. Which “% Inhibition of Apyrase” value did it give?
Answer: Its value is 63%.

Question: With `Cc1ccc(NS(=O)(=O)c2ccc(Cl)c(C(=O)N3CCc4ccccc43)c2)cc1C` [I-459, 4-chloro-N-(3,4-dimethylphenyl)-3-(indoline-1-carbonyl)benzenesulfonamide] as the molecule, how does the “% Inhibition of Apyrase” value read?
Answer: Its value is 60%.

Question: With `O=C(Nc1cccc(S(=O)(=O)Nc2cccc(C(F)(F)F)c2)c1)c1ccsc1` [I-718, N-(3-(N-(3-(trifluoromethyl)phenyl)sulfamoyl)phenyl) thiophene-3-carboxamide] as the molecule, how does the “% Inhibition of Apyrase” value read?
Answer: The value was 58%.

Question: How did the “% Inhibition of Apyrase” value turn out when `O=C(Nc1ccc2c(c1)CCC2)c1cccc(NS(=O)(=O)c2cccs2)c1` [I-632, N-(2,3-dihydro-1H-inden-5-yl)-3-(thiophene-2-sulfonamido)benzamide] was run?
Answer: The value was 62%.

Question: For `Cc1cc(Br)ccc1NC(=O)c1ccc(NS(=O)(=O)c2ccc(F)cc2)cc1` [I-933, N-(4-bromo-2-methylphenyl)-4-((4-fluorophenyl)sulfonamido)benzamide], which “% Inhibition of Apyrase” value is on record?
Answer: Its value is 53%.

Question: With `O=C(Nc1cccnc1)c1cccc(NS(=O)(=O)c2ccc3c(c2)OCCCO3)c1` [I-629, 3-((3,4-dihydro-2H-benzo[b][1,4]dioxepine)-7-sulfonamido)-N-(pyridin-3-yl)benzamide] as the molecule, how does the “% Inhibition of Apyrase” value read?
Answer: The value was 67%.

Question: How did the “% Inhibition of Apyrase” value turn out when `O=C(Nc1ccc(OC(F)F)c(Cl)c1)c1cccc(S(=O)(=O)Nc2ccc3c(c2)OCO3)c1` [I-181, 3-(N-(benzo[d][1,3]dioxol-5-yl)sulfamoyl)-N-(3-chloro-4-(difluoromethoxy)phenyl)benzamide] was run?
Answer: Its value is 77%.

Question: `O=C(Nc1ccccc1OC(F)F)c1ccc(S(=O)(=O)Nc2ccccc2F)cc1` [I-383, N-(2-(difluoromethoxy)phenyl)-4-(N-(2-fluorophenyl)sulfamoyl)benzamide] was tested. Which “% Inhibition of Apyrase” value did it give?
Answer: The value was 66%.

Question: For `COc1ccc(NC(=O)c2cccc(S(=O)(=O)Nc3ccc4c(c3)OCO4)c2)cc1` [I-276, 3-(N-(benzo[d][1,3]dioxol-5-yl)sulfamoyl)-N-(4-methoxyphenyl)benzamide], which “% Inhibition of Apyrase” value is on record?
Answer: The value was 44%.

Question: `Cc1ccc(NC(=O)c2cccc(S(=O)(=O)N3CCc4ccccc43)c2)cc1C` [I-452, N-(3,4-dimethylphenyl)-3-(indolin-1-ylsulfonyl)benzamide] was tested. Which “% Inhibition of Apyrase” value did it give?
Answer: Its value is 60%.

Question: Which “% Inhibition of Apyrase” value does the source give for `COc1ccc([N+](=O)[O-])cc1NS(=O)(=O)c1ccc(C(=O)Nc2ccc(Cl)cc2)cc1` [I-382, N-(4-chlorophenyl)-4-(N-(2-methoxy-5-nitrophenyl)sulfamoyl)benzamide] here?
Answer: Its value is 69%.

Question: For `CCOc1ccc(NS(=O)(=O)c2ccc(NC(=O)c3cccc(OC(F)F)c3)cc2)cc1` [I-986, 3-(difluoromethoxy)-N-(4-(N-(4-ethoxyphenyl)sulfamoyl)phenyl)benzamide], which “% Inhibition of Apyrase” value is on record?
Answer: The value was 56%.

Question: Which “% Inhibition of Apyrase” value does the source give for `O=C(Nc1nccs1)c1cccc(NS(=O)(=O)c2ccc3c(c2)OCCO3)c1` [I-660, 3-((2,3-dihydrobenzo[b][1,4]dioxine)-6-sulfonamido)-N-(thiazol-2-yl)benzamide] here?
Answer: Its value is 29%.

Question: How did the “% Inhibition of Apyrase” value turn out when `COc1ccc(C)cc1NC(=O)c1cccc(S(=O)(=O)N2CCc3ccccc32)c1` [I-473, 3-(indolin-1-ylsulfonyl)-N-(2-methoxy-5-methylphenyl)benzamide] was run?
Answer: The value was 59%.

Question: For `O=C(Nc1cccc(S(=O)(=O)Nc2ccc(SC(F)F)cc2)c1)c1ccsc1` [I-728, N-(3-(N-(4-((difluoromethyl)thio)phenyl)sulfamoyl)phenyl) thiophene-3-carboxamide], which “% Inhibition of Apyrase” value is on record?
Answer: The value was 56%.

Question: For `Cc1ccc(S(=O)(=O)N(C)c2ccc(C(=O)Nc3cccc(N4CCCC4=O)c3)cc2)cc1` [I-946, 4-((N,4-dimethylphenyl)sulfonamido)-N-(3-(2-oxopyrrolidin-1-yl)phenyl)benzamide], which “% Inhibition of Apyrase” value is on record?
Answer: Its value is 44%.

Question: `COc1ccc(NS(=O)(=O)c2ccc(NC(=O)c3cc(Cl)cc(Cl)c3)cc2)cc1` [I-992, 3,5-dichloro-N-(4-(N-(4-methoxyphenyl)sulfamoyl)phenyl)benzamide] was tested. Which “% Inhibition of Apyrase” value did it give?
Answer: Its value is 49%.

Question: With `CN(c1ccccc1)S(=O)(=O)c1cccc(NC(=O)c2ccc3ccccc3n2)c1` [I-754, N-(3-(N-methyl-N-phenylsulfamoyl)phenyl)quinoline-2-carboxamide] as the molecule, how does the “% Inhibition of Apyrase” value read?
Answer: The value was 36%.

Question: `O=C(Nc1ccc(S(=O)(=O)Nc2cccc(C(F)(F)F)c2)cc1)c1ccc(F)cc1Cl` [I-977, 2-chloro-4-fluoro-N-(4-(N-(3-(trifluoromethyl)phenyl)sulfamoyl)phenyl) benzamide] was tested. Which “% Inhibition of Apyrase” value did it give?
Answer: The value was 59%.

Question: For `Cc1cnc(C(=O)Nc2cccc(S(=O)(=O)Nc3cccc(Cl)c3)c2)cn1` [I-744, N-(3-(N-(3-chlorophenyl)sulfamoyl)phenyl)-5-methylpyrazine-2-carboxamide], which “% Inhibition of Apyrase” value is on record?
Answer: The value was 49%.

Question: For `COc1cc(OC)c(NS(=O)(=O)c2cc(C(=O)Nc3ccc(OC(F)(F)F)cc3)ccc2C)cc1Cl` [I-530, 3-(N-(5-chloro-2,4-dimethoxyphenyl)sulfamoyl)-4-methyl-N-(4-(trifluoromethoxy)phenyl)benzamide], which “% Inhibition of Apyrase” value is on record?
Answer: The value was 55%.

Question: `COc1ccc([N+](=O)[O-])cc1NS(=O)(=O)c1cccc(C(=O)Nc2ccc(F)c([N+](=O)[O-])c2)c1` [I-275, N-(4-fluoro-3-nitrophenyl)-3-(N-(2-methoxy-5-nitrophenyl)sulfamoyl)benzamide] was tested. Which “% Inhibition of Apyrase” value did it give?
Answer: Its value is 46%.

Question: Which “% Inhibition of Apyrase” value does the source give for `O=C(c1cc(S(=O)(=O)Nc2cccc(Cl)c2)c(Cl)cc1Cl)N1CCCc2ccccc21` [I-551, 2,4-dichloro-N-(3-chlorophenyl)-5-(1,2,3,4-tetrahydroquinoline-1-carbonyl)benzenesulfonamide] here?
Answer: Its value is 53%.

Question: With `O=C(Nc1cccc([N+](=O)[O-])c1)c1cc(S(=O)(=O)Nc2ccc(F)cc2)ccc1Cl` [I-52, 2-chloro-5-(N-(4-fluorophenyl)sulfamoyl)-N-(3-nitrophenyl)benzamide] as the molecule, how does the “% Inhibition of Apyrase” value read?
Answer: The value was 10%.

Question: For `CSc1ncccc1C(=O)Nc1cccc(S(=O)(=O)N(C)c2ccccc2)c1` [I-743, N-(3-(N-methyl-N-phenylsulfamoyl)phenyl)-2-(methylthio)nicotinamide], which “% Inhibition of Apyrase” value is on record?
Answer: The value was 49%.

Question: `Cc1cccc(NC(=O)c2cccc(S(=O)(=O)Nc3ccc4c(c3)OCO4)c2)c1` [I-270, 3-(N-(benzo[d][1,3]dioxol-5-yl)sulfamoyl)-N-(m-tolyl)benzamide] was tested. Which “% Inhibition of Apyrase” value did it give?
Answer: The value was 57%.

Question: Which “% Inhibition of Apyrase” value does the source give for `Cc1ccc(C(=O)Nc2cccc(S(=O)(=O)Nc3ccc(Br)cc3)c2)cc1` [I-194, N-(3-(N-(4-bromophenyl)sulfamoyl)phenyl)-4-methylbenzamide] here?
Answer: The value was 74%.

Question: For `Cc1cccc(NS(=O)(=O)c2ccc(C(=O)Nc3cccc(C#N)c3)cc2)c1C` [I-206, N-(3-cyanophenyl)-4-(N-(2,3-dimethylphenyl)sulfamoyl)benzamide], which “% Inhibition of Apyrase” value is on record?
Answer: The value was 74%.

Question: For `O=C(Nc1ccccc1OC(F)F)c1ccc(S(=O)(=O)Nc2ccccc2)cc1` [I-405, N-(2-(difluoromethoxy)phenyl)-4-(N-phenylsulfamoyl)benzamide], which “% Inhibition of Apyrase” value is on record?
Answer: Its value is 35%.

Question: For `CCOc1ccc(NS(=O)(=O)c2cccc(NC(=O)c3cccnc3)c2)cc1Br` [I-751, N-(3-(N-(3-bromo-4-ethoxyphenyl)sulfamoyl)phenyl)nicotinamide], which “% Inhibition of Apyrase” value is on record?
Answer: The value was 41%.

Question: How did the “% Inhibition of Apyrase” value turn out when `Cc1ccc(NC(=O)c2cccc(S(=O)(=O)Nc3ccc4c(c3)OCO4)c2)cc1` [I-245, 3-(N-(benzo[d][1,3]dioxol-5-yl)sulfamoyl)-N-(p-tolyl)benzamide] was run?
Answer: The value was 67%.

Question: Which “% Inhibition of Apyrase” value does the source give for `O=C(Nc1ccc(Cl)c(S(=O)(=O)N2CCOCC2)c1)c1ccc(S(=O)(=O)Nc2cccc(C(F)(F)F)c2)cc1` [I-386, N-(4-chloro-3-(morpholinosulfonyl)phenyl)-4-(N-(3-(trifluoromethyl)phenyl)sulfamoyl)benzamide] here?
Answer: The value was 65%.

Question: How did the “% Inhibition of Apyrase” value turn out when `COc1ccc2c(c1)CCCN2C(=O)c1cccc(S(=O)(=O)Nc2ccccc2F)c1` [I-561, N-(2-fluorophenyl)-3-(6-methoxy-1,2,3,4-tetrahydroquinoline-1-carbonyl)benzenesulfonamide] was run?
Answer: The value was 51%.
